Measurements taken from EP0146219A1, “Aminophosphonic & aminophosphinic acid derivatives processes for their preparation & herbicidal compositions containing them” (priority 1983, dated 1985).
Structures can show the parent of a compound that is named as a salt.

Assays:
Convolvulus arvensis [1] = test: soil-applied (pre-emergence) test in planted trays, visual percent inhibition; format: in vivo; details: 336 h, read-out: % inhibition. B; for inhibition at 1000 g/ha: rate 1.0 KG/HECTARE
Experimental: (§1) Plastic trays were planted with green cynondon dactylon, convolvulus arvensis and sinapis arvensis and covered with a good grade of top soil. All materials were applied with a laboratory sprayer that delivered a volume of 187 1/hectare. The trays of soil were thereafter watered lightly to activate the aminotriazole salts. The experiment was conducted twice and each was arranged in a completely random design with three replications. Visual estimates of percent inhibition were made at two weeks after treatment.

cynodon dactylon = test: as above; format: in vivo; details: 336 h; for inhibition at 1000 g/ha: rate 1.0 KG/HECTARE
Experimental: as §1

sinapis arvensis = test: as above; format: in vivo; details: Mutarda arvensis, 336 h, read-out: % inhibition. C; for inhibition at 1000 g/ha: rate 1.0 KG/HECTARE
Experimental: as §1

various plant species = test: post-emergence herbicidal activity, overall comparison; format: in vivo; details: for herbicidal activity compared with the related amine (IPA) salt: post-emergence, Tables II and III
Excerpt: (§2) The spray, a water solution containing active ingredient and a surfactant is applied to the plants in different sets of pans at several rates (kilogram per dunam) of active ingredient. The treated plants are placed in a greenhouse and the effects are observed and recorded after 4 days (table II) and after 2 weeks (table III). The post-emergence herbicidal activity index used in Table II and III is as follows: […]

[2] = solubility and crystallization of the salts in water; format: physicochemical; details: for solubility: at room temperature
Convolvulus arvensis [3] = test: post-emergence herbicidal activity (spray, greenhouse); format: in vivo; details: after 2 weeks; spray to 21 day old plants; active ingredient mole/l: I 0.022, II 0.043, III 0.03, IV 0.043, V 0.043; note: key: 0: No injury; 1: Slight injury; 2: Moderate injury; 3: Severe injury; 4: Killed
Excerpt: as §2

[4] = test system: Agropyron repens (quackgrass); test: as above; format: in vivo; details: after 2 weeks; spray to 21 day old plants; active ingredient mole/l: I 0.022, II 0.043, III 0.03, IV 0.043, V 0.043; note: key: 0: No injury; 1: Slight injury; 2: Moderate injury; 3: Severe injury; 4: Killed
Excerpt: as §2

Polygonum equiseliforme = test: as above; format: in vivo; details: after 2 weeks; spray to 21 day old plants; active ingredient mole/l: I 0.022, II 0.043, III 0.03, IV 0.043, V 0.043; note: key: 0: No injury; 1: Slight injury; 2: Moderate injury; 3: Severe injury; 4: Killed
Excerpt: as §2

Rubus Sanguineus = test: as above; format: in vivo; details: after 2 weeks; spray to 21 day old plants; active ingredient mole/l: I 0.022, II 0.043, III 0.03, IV 0.043, V 0.043; note: key: 0: No injury; 1: Slight injury; 2: Moderate injury; 3: Severe injury; 4: Killed
Excerpt: as §2

Inula Viscosa = test: as above; format: in vivo; details: after 2 weeks; spray to 21 day old plants; active ingredient mole/l: I 0.022, II 0.043, III 0.03, IV 0.043, V 0.043
Excerpt: as §2

Pennisetum clandestinum = test: as above; format: in vivo; details: after 2 weeks; spray to 21 day old plants; active ingredient mole/l: I 0.022, II 0.043, III 0.03, IV 0.043, V 0.043
Excerpt: as §2

Avena sterilis = test: as above; format: in vivo; details: after 2 weeks; spray to 21 day old plants; active ingredient mole/l: I 0.022, II 0.043, III 0.03, IV 0.043, V 0.043
Excerpt: as §2

Cynodon daotylon = test: as above; format: in vivo; details: after 2 weeks; spray to 21 day old plants; active ingredient mole/l: I 0.022, II 0.043, III 0.03, IV 0.043, V 0.043
Excerpt: as §2

Phragmites australis = test: as above; format: in vivo; details: after 2 weeks; spray to 21 day old plants; active ingredient mole/l: I 0.022, II 0.043, III 0.03, IV 0.043, V 0.043
Excerpt: as §2

Cyperus Rotundus = format: in vivo; details: after 2 weeks; spray to 21 day old plants; active ingredient mole/l: I 0.022, II 0.043, III 0.03, IV 0.043, V 0.043
Excerpt: The spray, a water solution containing active ingredient and a surfactant is applied to the plants in different sets of pans at several rates (kilogram per dunam) of active ingredient. […] The post-emergence herbicidal activity index used in Table II and III is as follows: […]

[5] = herbicidal activity when applied to the soil (statement in the text); format: in vivo; details: soil application
[6] = rate 0.5 KG/HECTARE, two weeks after treatment
[7] = rate 1.5 KG/HECTARE, two weeks after treatment

Row | Compound | inhibition at 1000 g/ha (Convolvulus arvensis [1]; two weeks after treatment) | inhibition at 1000 g/ha (cynodon dactylon; two weeks after treatment) | inhibition at 1000 g/ha (sinapis arvensis; two weeks after treatment) | herbicidal activity compared with the related amine (IPA) salt (various plant species) | post-emergence herbicidal activity index, TABLE III, G (Convolvulus arvensis [3]) | post-emergence herbicidal activity index, TABLE III, J [4] | post-emergence herbicidal activity index, TABLE III, A (Polygonum equiseliforme) | post-emergence herbicidal activity index, TABLE III, B (Rubus Sanguineus) | post-emergence herbicidal activity index, TABLE III, C (Inula Viscosa) | post-emergence herbicidal activity index, TABLE III, E (Pennisetum clandestinum) | post-emergence herbicidal activity index, TABLE III, H (Avena sterilis) | post-emergence herbicidal activity index, TABLE III, F (Cynodon daotylon) | post-emergence herbicidal activity index, TABLE III, D (Phragmites australis) | post-emergence herbicidal activity index, TABLE III, I (Cyperus Rotundus) | also measured
1 | O=C(O)CNCP(=O)(O)O [I, Di(3-amino-1,2,4-triazole)NPMG salt] | 90% | 80% | 90% | at least the same result |  |  |  |  |  |  |  |  |  |  | inhibition at 500 g/ha (Convolvulus arvensis [1]; [6]): 80%; inhibition at 500 g/ha (cynodon dactylon; [6]): 45%; inhibition at 500 g/ha (sinapis arvensis; [6]): 60%; antagonistic interaction (various plant species; applied to many species of weed, especially quackgrass): no antagonistic interaction; speed of phytotoxic action (knock down effect) (various plant species; first 4 days after application, compared with amine salt IV): faster phytotoxic action; crystalization ([2]; at 0^oc): no crystalization; solubility ([2]; listed as NPMG-Diaminotriazole salt): at least 1000 g/1
2 | O=C(O)CN(CC(=O)O)CP(=O)(O)O [II, Di(3-amino-1,2,4-triazole)NPMIDA salt] |  |  |  | far more superior activity | 2 | 2 | 3 | 2 | 3 | 3 | 3 | 2 | 3 | 3 | inhibition at 700 g/ha (Convolvulus arvensis [1]): 55%; inhibition at 1200 g/ha (Convolvulus arvensis [1]): 70%; inhibition at 700 g/ha (cynodon dactylon; read-out: % inhibition. A): 40%; inhibition at 1200 g/ha (cynodon dactylon; read-out: % inhibition. A): 70%; inhibition at 700 g/ha (sinapis arvensis): 65%; inhibition at 1200 g/ha (sinapis arvensis): 80%
3 | CP(=O)(O)CCC(N)C(=O)O (stereo not drawn) [III, Di(3-amino-1,2,4-triazole)Phosphino-thricine salt.] | 30% | 10% | 30% |  | 3 | 3 | 3 | 3 | 3 | 3 | 3 | 3 | 2 | 3 | inhibition at 1500 g/ha (Convolvulus arvensis [1]; [7]): 50%; inhibition at 1500 g/ha (cynodon dactylon; [7]): 20%; inhibition at 1500 g/ha (sinapis arvensis; [7]): 60%
4 | O=C(O)CNCP(=O)(O)O [IV, Mono(Isopropylamine)NPMG salt (ROUNDUP^(R)), reference compound] |  |  |  |  |  |  |  |  |  |  |  |  |  |  | herbicidal activity when applied to the soil [5]: little herbicidal activity; crystalization ([2]; at lower temperature (0-S^oc)): crystalization of the salt may occur; solubility ([2]; listed as NPMG.IPA): 480 g/1
5 | O=C(O)CN(CC(=O)O)CP(=O)(O)O [V, Mono(Isopropylamine)NPMIDA salt, reference compound] |  |  |  |  | 0 | 1 | 1 | 1 | 2 | 1 | 1 | 0 | 1 | 1 | 
